Here are results for three compounds from ChEMBL document CHEMBL1629433, “Synthesis and pharmacological evaluation of the stereoisomers of 3-carba cyclic-phosphatidic acid” (Bioorg Med Chem Lett, 2010).

Broadly, the Ki is the equilibrium dissociation constant of an inhibitor or competing ligand from its target.

Active and inactive are the calls of the source. No cut-off for these calls is given here.

The target of assay [1] is T1, Autotaxin (Homo sapiens, UniProt Q13822). In words: Inhibition of recombinant ATX mediated hydrolysis of FS-3.
Assay [2] concerns B16-F10. In words: Antitumor activity against mouse B16-F10 cells grafted in C57/BL6 mouse assessed as inhibition of lung metastases of cancer cells at 0.5 mg/kg/day, ip administered for 10 days and measured on day 21. It counts as functional, organism-based.
In assay [3] the target is T1, Autotaxin. Briefly: Inhibition of recombinant ATX mediated hydrolysis of FS-3 at 0.5 to 2 times IC50.
For assay [4], the target named is Lysophosphatidic acid receptor 5 (Homo sapiens) (UniProt Q9H1C0). In words: Agonist activity at LPA5 receptor expressed in rat B103 cells assessed as calcium mobilization at >1 uM. It counts as functional, cell-based. On the technique in general: Calcium assays in cells follow changes in intracellular calcium, usually with a dye or a luminescent sensor.
Sequence of Lysophosphatidic acid receptor 5 (Homo sapiens) (Q9H1C0 whole entry): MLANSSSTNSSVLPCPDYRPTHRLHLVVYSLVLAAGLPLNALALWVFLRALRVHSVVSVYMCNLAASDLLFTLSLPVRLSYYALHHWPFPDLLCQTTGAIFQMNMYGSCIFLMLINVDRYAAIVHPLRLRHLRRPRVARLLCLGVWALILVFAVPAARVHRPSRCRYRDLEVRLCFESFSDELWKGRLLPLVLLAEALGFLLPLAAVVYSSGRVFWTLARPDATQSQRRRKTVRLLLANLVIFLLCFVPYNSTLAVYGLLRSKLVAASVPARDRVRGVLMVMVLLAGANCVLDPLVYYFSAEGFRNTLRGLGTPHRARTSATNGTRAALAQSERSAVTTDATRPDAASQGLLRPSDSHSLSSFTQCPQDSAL

On to `CCCCCCCCCCCCCCCCCC(=O)OC[C@H]1CCP(=O)(O)O1`, for which, in assay [1], the Ki was found to be 0.8 µM. The inhibition entry in assay [2] and in assay [3] was “Active” each time. Besides, the result in assay [4] was Active.
In the case of `CCCCCCCCCCCCCCCCCC(=O)OC[C@@H]1CCP(=O)(O)O1`, the Ki in assay [1] was 1.6 µM. Moreover, the inhibition entry in assay [2] and in assay [3] was “Active” in each case. Further, in assay [4], the outcome was Active.
Take `CCCCCCCCCCCCCCCCCC(=O)OCC1CCP(=O)(O)O1` (racemic): the inhibition result in assay [2] is “Active”.
